{"source": "patent US11135316B2", "about": "“Imaging and treatment of pathophysiologic conditions by Cerenkov radiation” (priority 2014, dated 2021)", "key": {"[1]": {"system": "HT1080 cells", "experiment": "Lipid peroxidation assay (BODIPY 581/591 C11)", "assay_type": "cell-based", "method": "BODIPY® 581i591 C11 reagent (Life Technologies Inc.) was used to quantitatively determine the degree of lipid peroxidation. It is a ratiometric fluorescence technique that relies on oxidation of lipids to shift fluorescence emission peak from 590 nm to 510 nm. […] All the compounds were incubated for 6 h at 37° C. Finally, the BODIPY-based dye (10 μM) was added and incubated for 30 min at 37° C. After washing the cells with PBS three times, the plate was analysed using a Synergy HT multimode plate reader (BioTek Instruments Inc., Winooski, USA) with excitation/emission of 581/591 nm for the reduced dye and at 488/510 nm for the oxidized dye. The ratio of the fluorescence intensities at 590/510 nm was plotted to derive the ratio of fluorescence change."}, "[2]": {"system": "4T1 and HT1080 tumor", "settings": "mouse, in vivo", "source_text": "The studies were commenced when tumor volume reached 500 mm^3. […] The animals were euthanized subsequently and major organs dissected and imaged in the same channel. Image J was used to quantitate fluorescence intensity by drawing regions of interest encompassing entire organs."}, "[3]": {"system": "HT1080 tumor", "settings": "mouse, in vivo"}, "[4]": {"system": "HT1080 cells", "method": "FIG. 7A and FIG. 7B depict the effect of photosensitive particles and radionuclides on cell viability. […] The control group was considered to be 100% viable. […] HT1080 cells were used and the values are means±s.e.m. (experiments for each group were run in triplicates).\nThe MTS (3-(4,5-di methylthiazol-2-yl)-5-(3-carboxymethoxyphenyl)-2-(4-sulfophenyl)-2H-tetrazolium) assay, a colorimetric assay for assessing cell viability was performed using the CellTiter 96® AQueous Non-Radioactive Cell Proliferation Assay kit (Promega Co.) according to the manufacturer's instructions."}, "[5]": {"system": "HT1080 tumors", "assay_type": "in vivo, mice", "settings": "i.v. with FDG, monitored 15 days", "source_text": "Tumor volume was registered every alternate day for 15 days."}, "[6]": {"system": "mitochondrial membrane potential", "experiment": "Mitochondrial membrane potential assay (Mitotracker Green)", "assay_type": "cell-based", "settings": "coincubated with FDG", "method": "For measuring mitochondrial membrane potential, Mitotracker Green (Life Technologies Inc.) was used according to manufacturer's instructions. Staurosporine (2 μM; Sigma Aldrich Co.) was used as positive control. Fluorescence readout was performed using a plate reader using excitation/emission wavelengths of 490/516 nm."}, "[7]": {"system": "HT1080 cell line", "settings": "expected result of planned assay"}, "[8]": {"system": "cells", "settings": "literature; cited from earlier work"}}}
{"compound": "Cc1c(C)c2c(c(C)c1O)CCC(C)(C(=O)O)O2", "note": "(centres unmarked) [Trolox, reference compound]", "values": [{"measurement": "effect of peroxyl radical scavenger on lipid peroxidation", "setting": "[1]; added to Tc and FDG", "value": "adequately inhibited this process"}]}
{"compound": "Tf: transferrin, tumor targeting protein; Alexa 680 labeled for biodistribution", "values": [{"measurement": "tumor:muscle ratio", "setting": "[2]", "value": 5.5}, {"measurement": "tumor to muscle ratio", "setting": "[3]", "value": 5.3}]}
{"compound": "Titanocene dichloride [Tc]", "values": [{"measurement": "concentration that did not induce apoptosis", "setting": "[4]", "value": "< 10000", "unit": "ng/mL"}, {"measurement": "tumor volume, fold smaller compared to controls", "setting": "[5]", "value": "four-fold"}, {"measurement": "peroxidation of cellular lipids", "setting": "[1]; with FDG", "value": "induced significant peroxidation and degradation of cellular lipids"}, {"measurement": "mitochondrial membrane potential", "setting": "[6]", "value": "significant decrease in mitochondrial membrane potential"}, {"measurement": "LD50 Tc concentration, fold lower with CR than without FDG", "setting": "[7]", "value": "at least 4 fold"}, {"measurement": "concentration known to induce apoptosis in cells", "setting": "[8]", "value": "≥ 12500", "unit": "ng/mL"}]}
{"compound": "titanium dioxide [TiO2]", "values": [{"measurement": "concentration at which TiO2 particles did not induce apoptosis", "setting": "[4]", "value": "< 0.004", "unit": "ng/mL"}, {"measurement": "concentration that did not induce apoptosis", "setting": "[4]", "value": "< 4000", "unit": "ng/mL"}]}
